Values quoted from earlier work in US7541158B2, “Taste receptors of the T1R family from domestic dog” (Monell Chemical Senses Center, priority 2004, dated 2009).

Legend:
[1] = test system: dog; conditions: neurophysiological studies; mono- and disaccharides and sweeteners
[2] = test system: dog taste nerve fibers; conditions: for response of dog taste nerve fibers that respond to sucrose: sucrose-responsive fibers
[3] = test system: domestic dog

Row | SMILES | taste response activity in the dog [1] | response of dog taste nerve fibers fired by saccharin ([2]; saccharin-responsive fibers) | response of dog taste nerve fibers that respond to sucrose [2] | taste quality perceived by dog [3] | behavioral preference ([3]; behavior said to be congenital)
1 | O=C(CO)[C@@H](O)[C@H](O)[C@H](O)CO [D-fructose] | Particularly active |  |  |  | 
2 | OC[C@H]1O[C@](O)(CO)[C@@H](O)[C@@H]1O [β-D-fructose] | Particularly active |  |  |  | 
3 | O=C1NS(=O)(=O)c2ccccc21 [saccharin] |  | fired | no response | bitter | 
4 | OC[C@H]1O[C@@](CO)(O[C@H]2O[C@H](CO)[C@@H](O)[C@H](O)[C@H]2O)[C@@H](O)[C@@H]1O [sucrose] | Particularly active |  | responded |  | shows a preference
